{
  "source": "PubChem BioAssay AID1919009",
  "about": "(Molecular Pharmacology Branch, DTP, NCI, 2023);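 for viability, T/C: percent of DMSO vehicle-treated spheroid viability set as 100%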",
  "system": "K24384-001-R-PDC complex spheroid growth",
  "assay": "Anticancer human tumor K24384-001-R-PDC patient-derived pancreatic adenocarcinoma cell line growth inhibition [AhR]",
  "details": "for IC50: curve of first compound; for viability, T/C: stronger effect = lower value",
  "how_it_was_run": "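Complex tumor spheroids co-cultured with HUVEC and human MSC stroma; AhR antagonists tested in combination with standard-of-care and investigational agents. Top concentration at or near clinical Cmax (else 10 microM), half-log dilutions; growth expressed as percent test/control.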",
  "key": {"[1]": {"details": "second compound 0.1 µM, first compound 0.0316 µM"}, "[2]": {"details": "second compound 0.1 µM, first compound 0.1 µM"}, "[3]": {"details": "second compound 0.1 µM, first compound 0.316 µM"}, "[4]": {"details": "second compound 0.1 µM, first compound 1 µM"}, "[5]": {"details": "second compound 0.316 µM, first compound 0.0316 µM"}, "[6]": {"details": "second compound 0.316 µM, first compound 0.1 µM"}, "[7]": {"details": "second compound 0.316 µM, first compound 0.316 µM"}, "[8]": {"details": "second compound 0.316 µM, first compound 1 µM"}, "[9]": {"details": "second compound 1 µM, first compound 0.0316 µM"}, "[10]": {"details": "second compound 1 µM, first compound 0.1 µM"}, "[11]": {"details": "second compound 1 µM, first compound 0.316 µM"}, "[12]": {"details": "second compound 1 µM, first compound 1 µM"}, "[13]": {"details": "second compound 3.16 µM, first compound 0.0316 µM"}, "[14]": {"details": "second compound 3.16 µM, first compound 0.1 µM"}, "[15]": {"details": "second compound 3.16 µM, first compound 0.316 µM"}, "[16]": {"details": "second compound 3.16 µM, first compound 1 µM"}, "[17]": {"details": "second compound 10 µM, first compound 0.0316 µM"}, "[18]": {"details": "second compound 10 µM, first compound 0.1 µM"}, "[19]": {"details": "second compound 10 µM, first compound 0.316 µM"}, "[20]": {"details": "second compound 10 µM, first compound 1 µM"}},
  "data": [
    {"smiles": "CC1COCCN1c1cc(-c2ccnn2C)c2ccnc(-c3ccn[nH]3)c2n1", "note": "(stereo not given) + Cc1cncc(-c2nc(NCCc3c[nH]c4ccccc34)c3ncn(C(C)C)c3n2)c1", "values": [
      {"measurement": "IC50", "setting": "second compound 0.1 µM", "result": 73.9, "unit": "nM"},
      {"measurement": "IC50", "setting": "second compound 0.316 µM", "result": 93.3, "unit": "nM"},
      {"measurement": "IC50", "setting": "second compound 1 µM", "result": 90.5, "unit": "nM"},
      {"measurement": "IC50", "setting": "second compound 3.16 µM", "result": 55.2, "unit": "nM"},
      {"measurement": "IC50", "setting": "second compound 10 µM", "result": "< 3.16", "unit": "nM"},
      {"measurement": "viability, T/C", "setting": "second compound 0.1 µM, first compound 0.00316 µM", "result": 88.3, "unit": "%"},
      {"measurement": "viability, T/C", "setting": "second compound 0.1 µM, first compound 0.01 µM", "result": 81.3, "unit": "%"},
      {"measurement": "viability, T/C", "setting": "[1]", "result": 65.3, "unit": "%"},
      {"measurement": "viability, T/C", "setting": "[2]", "result": 46.1, "unit": "%"},
      {"measurement": "viability, T/C", "setting": "[3]", "result": 25.7, "unit": "%"},
      {"measurement": "viability, T/C", "setting": "[4]", "result": 22.2, "unit": "%"},
      {"measurement": "viability, T/C", "setting": "second compound 0.316 µM, first compound 0.00316 µM", "result": 95.6, "unit": "%"},
      {"measurement": "viability, T/C", "setting": "second compound 0.316 µM, first compound 0.01 µM", "result": 95.8, "unit": "%"},
      {"measurement": "viability, T/C", "setting": "[5]", "result": 89.1, "unit": "%"},
      {"measurement": "viability, T/C", "setting": "[6]", "result": 46.4, "unit": "%"},
      {"measurement": "viability, T/C", "setting": "[7]", "result": 31.8, "unit": "%"},
      {"measurement": "viability, T/C", "setting": "[8]", "result": 20.5, "unit": "%"},
      {"measurement": "viability, T/C", "setting": "second compound 1 µM, first compound 0.00316 µM", "result": 94.5, "unit": "%"},
      {"measurement": "viability, T/C", "setting": "second compound 1 µM, first compound 0.01 µM", "result": 104, "unit": "%"},
      {"measurement": "viability, T/C", "setting": "[9]", "result": 87.3, "unit": "%"},
      {"measurement": "viability, T/C", "setting": "[10]", "result": 46.9, "unit": "%"},
      {"measurement": "viability, T/C", "setting": "[11]", "result": 24.8, "unit": "%"},
      {"measurement": "viability, T/C", "setting": "[12]", "result": 24.6, "unit": "%"},
      {"measurement": "viability, T/C", "setting": "second compound 3.16 µM, first compound 0.00316 µM", "result": 73, "unit": "%"},
      {"measurement": "viability, T/C", "setting": "second compound 3.16 µM, first compound 0.01 µM", "result": 88.3, "unit": "%"},
      {"measurement": "viability, T/C", "setting": "[13]", "result": 69, "unit": "%"},
      {"measurement": "viability, T/C", "setting": "[14]", "result": 30.1, "unit": "%"},
      {"measurement": "viability, T/C", "setting": "[15]", "result": 27.3, "unit": "%"},
      {"measurement": "viability, T/C", "setting": "[16]", "result": 27.7, "unit": "%"},
      {"measurement": "viability, T/C", "setting": "second compound 10 µM, first compound 0.00316 µM", "result": 7.24, "unit": "%"},
      {"measurement": "viability, T/C", "setting": "second compound 10 µM, first compound 0.01 µM", "result": 7.46, "unit": "%"},
      {"measurement": "viability, T/C", "setting": "[17]", "result": 8.32, "unit": "%"},
      {"measurement": "viability, T/C", "setting": "[18]", "result": 5.4, "unit": "%"},
      {"measurement": "viability, T/C", "setting": "[19]", "result": 4.59, "unit": "%"},
      {"measurement": "viability, T/C", "setting": "[20]", "result": 6.27, "unit": "%"}
    ]},
    {"smiles": "CC1COCCN1c1cc(C2(S(C)(=N)=O)CC2)nc(-c2ccnc3[nH]ccc23)n1", "note": "(stereo not given) + Cc1cncc(-c2nc(NCCc3c[nH]c4ccccc34)c3ncn(C(C)C)c3n2)c1", "values": [
      {"measurement": "IC50", "setting": "second compound 0.1 µM", "result": 3220, "unit": "nM"},
      {"measurement": "IC50", "setting": "second compound 0.316 µM", "result": 4430, "unit": "nM"},
      {"measurement": "IC50", "setting": "second compound 1 µM", "result": 4740, "unit": "nM"},
      {"measurement": "IC50", "setting": "second compound 3.16 µM", "result": 1270, "unit": "nM"},
      {"measurement": "IC50", "setting": "second compound 10 µM", "result": "< 31.6", "unit": "nM"},
      {"measurement": "viability, T/C", "setting": "[1]", "result": 97.7, "unit": "%"},
      {"measurement": "viability, T/C", "setting": "[2]", "result": 105, "unit": "%"},
      {"measurement": "viability, T/C", "setting": "[3]", "result": 105, "unit": "%"},
      {"measurement": "viability, T/C", "setting": "[4]", "result": 84.1, "unit": "%"},
      {"measurement": "viability, T/C", "setting": "second compound 0.1 µM, first compound 3.16 µM", "result": 51.2, "unit": "%"},
      {"measurement": "viability, T/C", "setting": "second compound 0.1 µM, first compound 10 µM", "result": 32.2, "unit": "%"},
      {"measurement": "viability, T/C", "setting": "[5]", "result": 94.7, "unit": "%"},
      {"measurement": "viability, T/C", "setting": "[6]", "result": 102, "unit": "%"},
      {"measurement": "viability, T/C", "setting": "[7]", "result": 96.3, "unit": "%"},
      {"measurement": "viability, T/C", "setting": "[8]", "result": 87.3, "unit": "%"},
      {"measurement": "viability, T/C", "setting": "second compound 0.316 µM, first compound 3.16 µM", "result": 58.8, "unit": "%"},
      {"measurement": "viability, T/C", "setting": "second compound 0.316 µM, first compound 10 µM", "result": 29.1, "unit": "%"},
      {"measurement": "viability, T/C", "setting": "[9]", "result": 116, "unit": "%"},
      {"measurement": "viability, T/C", "setting": "[10]", "result": 113, "unit": "%"},
      {"measurement": "viability, T/C", "setting": "[11]", "result": 118, "unit": "%"},
      {"measurement": "viability, T/C", "setting": "[12]", "result": 95, "unit": "%"},
      {"measurement": "viability, T/C", "setting": "second compound 1 µM, first compound 3.16 µM", "result": 61.1, "unit": "%"},
      {"measurement": "viability, T/C", "setting": "second compound 1 µM, first compound 10 µM", "result": 31.1, "unit": "%"},
      {"measurement": "viability, T/C", "setting": "[13]", "result": 80.6, "unit": "%"},
      {"measurement": "viability, T/C", "setting": "[14]", "result": 74.8, "unit": "%"},
      {"measurement": "viability, T/C", "setting": "[15]", "result": 70, "unit": "%"},
      {"measurement": "viability, T/C", "setting": "[16]", "result": 52, "unit": "%"},
      {"measurement": "viability, T/C", "setting": "second compound 3.16 µM, first compound 3.16 µM", "result": 37.8, "unit": "%"},
      {"measurement": "viability, T/C", "setting": "second compound 3.16 µM, first compound 10 µM", "result": 25.9, "unit": "%"},
      {"measurement": "viability, T/C", "setting": "[17]", "result": 10.3, "unit": "%"},
      {"measurement": "viability, T/C", "setting": "[18]", "result": 11.3, "unit": "%"},
      {"measurement": "viability, T/C", "setting": "[19]", "result": 11.8, "unit": "%"},
      {"measurement": "viability, T/C", "setting": "[20]", "result": 11.8, "unit": "%"},
      {"measurement": "viability, T/C", "setting": "second compound 10 µM, first compound 3.16 µM", "result": 8.29, "unit": "%"},
      {"measurement": "viability, T/C", "setting": "second compound 10 µM, first compound 10 µM", "result": 10.9, "unit": "%"}
    ]}
  ]
}
